ChEMBL document CHEMBL1275492, “In vitro activity of ceftobiprole against pathogens from two phase 3 clinical trials of complicated skin and skin structure infections” (2008)

Tests used:
Assay type in all cases: functional
[1] = tested on: Prevotella; assay: Antibacterial activity against Prevotella spp. obtained from complicated skin and skin structure infections by agar dilution method
[2] = tested on: Veillonella; assay: Antibacterial activity against Veillonella spp. obtained from complicated skin and skin structure infections by agar dilution method
[3] = tested on: Bacteroides fragilis; assay: Antibacterial activity against Bacteroides fragilis obtained from complicated skin and skin structure infections by agar dilution method
[4] = tested on: Enterococcus faecium; assay: Antibacterial activity against Enterococcus faecium obtained from complicated skin and skin structure infections by agar dilution method
[5] = tested on: Mammaliicoccus sciuri; assay: Antibacterial activity against coagulase-negative Staphylococcus sciuri obtained from complicated skin and skin structure infections by agar dilution method
[6] = tested on: Bacillus; assay: Antibacterial activity against Bacillus spp. obtained from complicated skin and skin structure infections by agar dilution method
[7] = tested on: Providencia stuartii; assay: Antibacterial activity against Providencia stuartii obtained from complicated skin and skin structure infections by agar dilution method
[8] = tested on: Gemella; assay: Antibacterial activity against Gemella spp. obtained from complicated skin and skin structure infections by agar dilution method
[9] = tested on: Proteus mirabilis; assay: Antibacterial activity against Proteus mirabilis obtained from complicated skin and skin structure infections by agar dilution method
[10] = tested on: Stenotrophomonas maltophilia; assay: Antibacterial activity against Stenotrophomonas maltophilia obtained from complicated skin and skin structure infections by agar dilution method
[11] = tested on: Staphylococcus saprophyticus; assay: Antibacterial activity against coagulase-negative Staphylococcus saprophyticus obtained from complicated skin and skin structure infections by agar dilution method
[12] = tested on: Streptococcus agalactiae; assay: Antibacterial activity against Streptococcus agalactiae obtained from complicated skin and skin structure infections by agar dilution method
[13] = Antibacterial activity against Streptococcus sp. 'group C' obtained from complicated skin and skin structure infections by agar dilution method
[14] = tested on: Klebsiella oxytoca; assay: Antibacterial activity against Klebsiella oxytoca obtained from complicated skin and skin structure infections by agar dilution method
[15] = tested on: Staphylococcus lugdunensis; assay: Antibacterial activity against coagulase-negative Staphylococcus lugdunensis obtained from complicated skin and skin structure infections by agar dilution method
[16] = tested on: Aerococcus viridans; assay: Antibacterial activity against Aerococcus viridans obtained from complicated skin and skin structure infections by agar dilution method
[17] = tested on: Staphylococcus epidermidis; assay: Antibacterial activity against coagulase-negative Staphylococcus epidermidis obtained from complicated skin and skin structure infections by agar dilution method
[18] = tested on: Pseudomonas fluorescens; assay: Antibacterial activity against Pseudomonas fluorescens obtained from complicated skin and skin structure infections by agar dilution method
[19] = tested on: Klebsiella pneumoniae; assay: Antibacterial activity against Klebsiella pneumoniae obtained from complicated skin and skin structure infections by agar dilution method
[20] = tested on: Serratia marcescens; assay: Antibacterial activity against Serratia marcescens obtained from complicated skin and skin structure infections by agar dilution method
[21] = tested on: Staphylococcus aureus; assay: Antibacterial activity against methicillin resistant Staphylococcus aureus obtained from complicated skin and skin structure infections by agar dilution method
[22] = tested on: Proteus vulgaris; assay: Antibacterial activity against Proteus vulgaris obtained from complicated skin and skin structure infections by agar dilution method
[23] = tested on: Staphylococcus lugdunensis; assay: Antibacterial activity against methicillin-resistant, oxacillin-susceptible, coagulase-negative, mecA-positive Staphylococcus lugdunensis obtained from complicated skin and skin structure infections by agar dilution method
[24] = tested on: Staphylococcus; assay: Antibacterial activity against methicillin-susceptible, coagulase-negative Staphylococcus obtained from complicated skin and skin structure infections by agar dilution method
[25] = tested on: Staphylococcus aureus; assay: Antibacterial activity against Staphylococcus aureus obtained from complicated skin and skin structure infections by agar dilution method
[26] = tested on: Micrococcus; assay: Antibacterial activity against Micrococcus spp. obtained from complicated skin and skin structure infections by agar dilution method
[27] = tested on: Acinetobacter baumannii; assay: Antibacterial activity against Acinetobacter baumannii obtained from complicated skin and skin structure infections by agar dilution method
[28] = tested on: Citrobacter freundii; assay: Antibacterial activity against Citrobacter freundii obtained from complicated skin and skin structure infections by agar dilution method
[29] = tested on: Staphylococcus cohnii; assay: Antibacterial activity against coagulase-negative Staphylococcus cohnii obtained from complicated skin and skin structure infections by agar dilution method
[30] = tested on: Staphylococcus haemolyticus; assay: Antibacterial activity against coagulase-negative Staphylococcus haemolyticus obtained from complicated skin and skin structure infections by agar dilution method
[31] = tested on: Enterobacter amnigenus; assay: Antibacterial activity against Enterobacter amnigenus obtained from complicated skin and skin structure infections by agar dilution method; details: Lelliottia amnigena
[32] = tested on: Staphylococcus warneri; assay: Antibacterial activity against coagulase-negative Staphylococcus warneri obtained from complicated skin and skin structure infections by agar dilution method
[33] = tested on: Proteus penneri; assay: Antibacterial activity against Proteus penneri obtained from complicated skin and skin structure infections by agar dilution method
[34] = tested on: Streptococcus mitis; assay: Antibacterial activity against Streptococcus mitis obtained from complicated skin and skin structure infections by agar dilution method
[35] = tested on: Salmonella; assay: Antibacterial activity against Salmonella spp. obtained from complicated skin and skin structure infections by agar dilution method
[36] = tested on: Gemella morbillorum; assay: Antibacterial activity against Gemella morbillorum obtained from complicated skin and skin structure infections […]
[37] = tested on: Klebsiella aerogenes; assay: Antibacterial activity against Enterobacter aerogenes obtained from complicated skin and skin structure infections by agar dilution method
[38] = tested on: Staphylococcus intermedius; assay: Antibacterial activity against Staphylococcus intermedius obtained from complicated skin and skin structure infections by agar dilution method
[39] = tested on: Escherichia coli; assay: Antibacterial activity against Escherichia coli obtained from complicated skin and skin structure infections by agar dilution method
[40] = tested on: Staphylococcus capitis; assay: Antibacterial activity against coagulase-negative Staphylococcus capitis obtained from complicated skin and skin structure infections by agar dilution method
[41] = tested on: Lactococcus lactis; assay: Antibacterial activity against Lactococcus lactis obtained from complicated skin and skin structure infections by agar dilution method
[42] = Antibacterial activity against Streptococcus sp. 'group G' obtained from complicated skin and skin structure infections by agar dilution method
[43] = tested on: Staphylococcus hominis; assay: Antibacterial activity against coagulase-negative Staphylococcus hominis obtained from complicated skin and skin structure infections by agar dilution method
[44] = tested on: Staphylococcus aureus; assay: Antibacterial activity against methicillin susceptible Staphylococcus aureus obtained from complicated skin and skin structure infections by agar dilution method
[45] = tested on: Enterobacter cloacae; assay: Antibacterial activity against Enterobacter cloacae obtained from complicated skin and skin structure infections by agar dilution method
[46] = tested on: Enterococcus faecalis; assay: Antibacterial activity against Enterococcus faecalis obtained from complicated skin and skin structure infections by agar dilution method
[47] = tested on: Morganella morganii; assay: Antibacterial activity against Morganella morganii obtained from complicated skin and skin structure infections by agar dilution method
[48] = tested on: Pseudomonas aeruginosa; assay: Antibacterial activity against Pseudomonas aeruginosa obtained from complicated skin and skin structure infections by agar dilution method
[49] = tested on: Citrobacter braakii; assay: Antibacterial activity against Citrobacter braakii obtained from complicated skin and skin structure infections by agar dilution method
[50] = tested on: Streptococcus constellatus; assay: Antibacterial activity against Streptococcus constellatus obtained from complicated skin and skin structure infections by agar dilution method
[51] = tested on: Streptococcus pyogenes; assay: Antibacterial activity against Streptococcus pyogenes obtained from complicated skin and skin structure infections by agar dilution method

Work on `CO[C@@]1(NC(=O)Cc2cccs2)C(=O)N2C(C(=O)O)=C(COC(N)=O)CS[C@@H]21` [CEFOXITIN] yielded an MIC [1] of at most 1 µg/mL, an MIC [2] of at most 1 µg/mL and an MIC [3] of at most 1 µg/mL.

For `C[C@H]1COc2c(N3CCN(C)CC3)c(F)cc3c(=O)c(C(=O)O)cn1c23.C[C@H]1COc2c(N3CCN(C)CC3)c(F)cc3c(=O)c(C(=O)O)cn1c23.O` [LEVOFLOXACIN], the MIC50 [4] was 4 µg/mL, the MIC50 [5] was 0.12 µg/mL and the MIC90 [5] was 8 µg/mL. It also gave an MIC50 [6] of 0.5 µg/mL, an MIC90 [6] of 4 µg/mL and an MIC50 [7] of at most 0.06 µg/mL. It also gave an MIC90 [7] of 8 µg/mL, an MIC50 [8] of 0.5 µg/mL and an MIC90 [8] of 4 µg/mL. For the same compound, the MIC50 [9] was at most 0.06 µg/mL, the MIC90 [9] was over 8 µg/mL and the MIC50 [10] was 4 µg/mL. It also gave an MIC90 [10] of 8 µg/mL, an MIC50 [11] of 0.12 µg/mL and an MIC90 [11] of 8 µg/mL. For the same compound, the MIC [12] was 0.5 µg/mL, the MIC50 [12] was 0.5 µg/mL and the MIC90 [12] was 1 µg/mL. For the same compound, the MIC50 [13] was 0.5 µg/mL, the MIC90 [13] was 0.5 µg/mL and the MIC50 [14] was at most 0.06 µg/mL. It also gave an MIC90 [14] of 8 µg/mL, an MIC50 [15] of 0.12 µg/mL and an MIC90 [15] of 8 µg/mL. The MIC50 [16] was 0.5 µg/mL, the MIC90 [16] was 4 µg/mL and the MIC50 [17] was 0.12 µg/mL. For the same compound, the MIC90 [17] was 8 µg/mL, the MIC50 [18] was 4 µg/mL and the MIC90 [18] was 8 µg/mL. For the same compound, the MIC50 [19] was 0.06 µg/mL, the MIC90 [19] was 4 µg/mL and the MIC50 [20] was at most 0.06 µg/mL. The MIC90 [20] was 8 µg/mL, the MIC50 [21] was 4 µg/mL and the MIC90 [21] was 8 µg/mL. The MIC50 [22] was at most 0.06 µg/mL, the MIC90 [22] was 8 µg/mL and the MIC50 [23] was 0.25 µg/mL. The MIC90 [23] was over 8 µg/mL, the MIC50 [24] was 0.12 µg/mL and the MIC90 [24] was 0.25 µg/mL. For the same compound, the MIC50 [25] was 0.12 µg/mL, the MIC90 [25] was 4 µg/mL and the MIC50 [26] was 0.5 µg/mL. For the same compound, the MIC90 [26] was 4 µg/mL, the MIC50 [27] was 4 µg/mL and the MIC90 [27] was 8 µg/mL. It also gave an MIC50 [28] of at most 0.06 µg/mL, an MIC90 [28] of 8 µg/mL and an MIC50 [29] of 0.12 µg/mL. The MIC90 [29] was 8 µg/mL, the MIC50 [30] was 0.12 µg/mL and the MIC90 [30] was 8 µg/mL. It also gave an MIC50 [31] of at most 0.06 µg/mL, an MIC90 [31] of 8 µg/mL and an MIC50 [32] of 0.12 µg/mL. For the same compound, the MIC90 [32] was 8 µg/mL, the MIC50 [33] was at most 0.06 µg/mL and the MIC90 [33] was 8 µg/mL. It also gave an MIC [34] of at most 0.03 µg/mL, an MIC50 [34] of at most 0.03 µg/mL and an MIC90 [34] of 0.12 µg/mL. The MIC50 [35] was at most 0.06 µg/mL, the MIC90 [35] was 8 µg/mL and the MIC50 [36] was 0.5 µg/mL. It also gave an MIC90 [36] of 4 µg/mL, an MIC50 [37] of at most 0.06 µg/mL and an MIC90 [37] of 8 µg/mL. It also gave an MIC [38] of at most 0.03 µg/mL, an MIC50 [38] of at most 0.03 µg/mL and an MIC90 [38] of 0.12 µg/mL. The MIC50 [39] was 0.03 µg/mL, the MIC90 [39] was 1 µg/mL and the MIC50 [40] was 0.12 µg/mL. It also gave an MIC90 [40] of 8 µg/mL, an MIC50 [41] of 0.5 µg/mL and an MIC90 [41] of 4 µg/mL. The MIC50 [42] was 0.5 µg/mL, the MIC90 [42] was 0.5 µg/mL and the MIC50 [43] was 0.12 µg/mL. The MIC90 [43] was 8 µg/mL, the MIC50 [44] was 0.12 µg/mL and the MIC90 [44] was 0.5 µg/mL. The MIC50 [45] was 0.06 µg/mL, the MIC90 [45] was 4 µg/mL and the MIC50 [46] was 1 µg/mL. For the same compound, the MIC90 [46] was 2 µg/mL, the MIC50 [47] was 1 µg/mL and the MIC90 [47] was 64 µg/mL. For the same compound, the MIC50 [48] was 4 µg/mL, the MIC90 [48] was 64 µg/mL and the MIC50 [49] was at most 0.06 µg/mL. It also gave an MIC90 [49] of 8 µg/mL, an MIC [50] of 0.25 µg/mL and an MIC50 [50] of 0.25 µg/mL. For the same compound, the MIC90 [50] was 1 µg/mL, the MIC50 [51] was 0.5 µg/mL and the MIC90 [51] was 0.5 µg/mL.
